First: Cc1ccc(Cn2c(-c3ccccc3)nc(Cl)c2CO)cc1
Second: CCC(Oc1ccc(Cl)c(C)c1)C(=O)NCc1ccccc1 (stereo not drawn)
The melting point of the first is higher: 173 to 175 °C for the first, 95 to 97 °C for the second.

First: COc1c2c(c(OC)c(OC)c1OC)CCC(CCO)CC2
Second: COc1c(O)c(C)c2c(c1OC)OC(C)(CN1CCC(c3ccccc3)CC1)C2 (stereo not drawn)
The melting point of the first is lower: 64 to 66 °C for the first, 112 to 113 °C for the second.

First: O=C(NNc1ccc(NC(=S)NCc2ccccc2)cc1)c1ccc(Cl)cc1
Second: O=C(NC(NC(=S)Nc1cccnc1)C(F)(F)F)c1ccc(Cl)cc1 (stereo not drawn)
The melting point of the first is higher: 197 to 199 °C for the first, 147 to 149 °C for the second.

Compared with CCCC(C(=O)N(CC)CC)n1cc(C)c(-c2ccccc2)n1 (stereo not drawn), CCCSc1ncc(CC(NC(C)=O)C(=O)O)n1Cc1ccccc1Cl (stereo not drawn) is higher in melting point: 65 to 67 °C for the first, 182 to 184 °C for the second.

First: CCOC(=O)C1=C(C)NC(c2csc(C)n2)=NC1c1ccc(F)cc1Cl (stereo not drawn)
Second: CCOC(=O)c1nc2ccc(Cl)cc2c(=O)[nH]1
The melting point of the first is lower: 123 to 125 °C for the first, 249 to 251 °C for the second.

First: COc1ccc2cc(C(=O)O)oc(=O)c2c1OC
Second: COc1c(CC(=O)O)cccc1Oc1ccccc1C
The melting point of the first is higher: 262 to 263 °C for the first, 90 to 92 °C for the second.

Compared with CC(C)CS(=O)c1ccc(N)c([N+](=O)[O-])c1 (stereo not drawn), COC(=O)CCCNS(=O)(=O)c1cccc2c([N+](=O)[O-])cccc12 is lower in melting point: 111 to 118 °C for the first, 102 to 104 °C for the second.

Compared with CC(C)(C)COc1c(-c2ccc(S(N)(=O)=O)c(F)c2)cnn(CC(F)(F)F)c1=O, CC(C)Cn1c(CNC(=O)OC(C)(C)C)c(-c2ccc(F)cc2)c2cc(/C=C/C(N)=O)ccc2c1=O is higher in melting point: 144 to 145 °C for the first, 161 to 163 °C for the second.

First: COc1ccc2c(c1F)C(=O)N(Nc1ccncc1)C2=O
Second: COCc1nc2c(OC)ccc(C(=O)Cc3ccncc3)c2[nH]1
The melting point of the first is lower: 206 to 210 °C for the first, 218 to 220 °C for the second.

Compared with Cc1[nH]c(=O)n(C)c1-c1cc(C(C)(C)C)c(O)c(C(C)(C)C)c1, Cc1c(N)cc(C(C)(C)C)cc1N is lower in melting point: 285 to 286 °C for the first, 97.3 °C for the second.

Compared with CC1(C)CCOC1=C(n1ccnc1)S(=O)(=O)c1ccc(Cl)cc1, CS(=O)(=O)c1cccc(-c2ccccc2N)c1 is lower in melting point: 192 to 194 °C for the first, 114 to 115 °C for the second.

First: OC(Cn1cncn1)(c1ccc(F)cc1)C(F)(F)c1ccc(F)cc1 (stereo not drawn)
Second: O=C(c1cc(C(F)(F)F)ccc1Cl)c1cc(C(F)(F)F)ccc1Cl
The melting point of the first is higher: 128 to 130 °C for the first, 70 to 72 °C for the second.

First: COc1ccccc1Sc1c(O)nc[nH]c1=O
Second: O=c1oc2ccccc2c(O)c1CCOc1ccccc1
The melting point of the first is higher: 291 °C for the first, 157 to 159 °C for the second.

Compared with O=C(c1cc(-c2ccc(OCc3ccccc3)cc2)c(=O)n2ccc3ccsc3c12)N(CCN1CCOCC1)c1ccccc1, CN1C(=O)c2c(Oc3ccccc3OS(=O)(=O)C(F)(F)F)cc3c(c2C1=O)c1ccc(OCc2ccccc2)cc1n3C(=O)OC(C)(C)C is higher in melting point: 168 to 170 °C for the first, 186 °C for the second.

First: Cc1cccc(N2CC(C)C(N)=N2)n1 (stereo not drawn)
Second: Nc1ncc2ncn([C@@H]3C[C@H](O)[C@@H](O)[C@H]3O)c2n1 (racemic)
The melting point of the first is higher: 181 to 185 °C for the first, 153 to 155 °C for the second.

First: CCCCCCCCCCCC1OC1C(=O)O (stereo not drawn)
Second: CCCCC(=O)c1sc(Oc2ccc3c(c2)OCO3)c2c1CCc1cnn(C)c1-2
The melting point of the first is lower: 76 to 77 °C for the first, 101 to 102 °C for the second.

Compared with C=Cn1cc(C(=O)O)c(=O)c2cc(F)c(N3CCC(N)C3)nc21 (stereo not drawn), NS(=O)(=O)c1cc(C(=O)O)cc([N+](=O)[O-])c1Oc1cccc(Cl)c1 is lower in melting point: 253 to 257 °C for the first, 230 to 232 °C for the second.

Compared with CN(C)CCNC(=O)Cn1c(-c2ccc(Br)cc2)nc2cccnc21, CS(=O)(=O)NCCn1c(=O)c(-c2cccs2)nc2ccccc21 is higher in melting point: 195 to 197 °C for the first, 236 to 237 °C for the second.

First: N#Cc1c(N2CCCCC2)cc(-c2ccc(Br)cc2)c2c1Cc1ccccc1-2
Second: O=c1cc2c(nn1-c1ccccc1)-c1ccccc1CC2
The melting point of the first is higher: 212 °C for the first, 155 to 157 °C for the second.

First: c1nc(Nc2ccc3[nH]ccc3c2)c2sc(-c3ccc(CNCCN4CCNCC4)cc3)cc2n1
Second: O=C(CSc1nc2ccccc2s1)NC1(C(=O)O)Cc2ccc(-c3ccc(Cl)cc3)cc2C1 (stereo not drawn)
The melting point of the first is lower: 178 to 191 °C for the first, 205 to 207 °C for the second.

First: COc1ccc(C(Cc2cc(Cl)nc(Cl)c2)=NO)cc1OC1CCCC1
Second: COc1ccc(C2(C#Cc3ccc(C(=O)O)cc3)CCCC(=O)C2)cc1OC1CCCC1 (racemic)
The melting point of the first is higher: 139 to 140 °C for the first, 102 to 104 °C for the second.

Going from CNC(=S)Nc1ccc(Cl)nc1 to OCc1cnc2c(Cl)cccc2c1O, the melting point rises from 164 °C to > 300 °C.

First: Cc1c(Cc2ccccc2)c(=O)oc2cc(OCC3=NNN(C)N3)cc(OCC3=NNN(C)N3)c12
Second: CS(=O)(=O)Nc1cc2oc(N)cc(=O)c2cc1Oc1ccccc1
The melting point of the first is lower: 71 to 76 °C for the first, 223 to 225 °C for the second.

Compared with CC(=O)n1c(=O)n(-c2ccccc2)c(=O)n1C(C)=O, CCOC(=O)Oc1ccc(/C=C/C(=O)O)cc1 is higher in melting point: 169 to 170 °C for the first, 173 to 176 °C for the second.

First: O=C(NC1CN(C(C(=O)O)c2ccc(OC(=O)c3ccccc3)cc2)C1=O)C(=NOC(=O)c1ccccc1)c1ccccc1 (stereo not drawn)
Second: C#CC1N(C(=O)Oc2ccccc2)c2ccc(OCc3ccccc3[N+](=O)[O-])cc2C23OC12CCCC3O (stereo not drawn)
The melting point of the first is lower: 119 to 123 °C for the first, 207 to 209 °C for the second.

Compared with CC(C=CC=C(C)CO)=CC=CC=C(C)C1OCC(C)(C)CO1, COC12CC(C)(C)C(O)C(C=C1C)O2 (stereo not drawn) is lower in melting point: 136 to 137 °C for the first, 82.5 to 83.5 °C for the second.

Compared with CN1CCN(c2cccc3c2C[C@H](NC(=O)c2ccc(OC(F)(F)F)cc2)CO3)CC1, FC(F)(F)c1cccc(N2CCN(c3ccc(Cl)nn3)CC2)c1 is lower in melting point: 192 to 193 °C for the first, 149 °C for the second.

First: COc1ccc2c(c1)c1cc(-c3cc(F)cc(F)c3)c(=O)n(C)c1n2C
Second: COc1ccc(Nc2ccc3c(c2)OCC(=O)N3)cc1
The melting point of the first is higher: 189 °C for the first, 174 to 175 °C for the second.

First: CCC(=O)Oc1cc(OC)cc(OC)c1C(=O)C=Cc1ccc2c(c1)OCO2
Second: COc1cc(-c2nc3ccccc3n2Cc2ccccc2I)cc(OC)c1OC
The melting point of the first is lower: 134 °C for the first, 179 °C for the second.

Compared with CCCOc1cc2nc(Cl)nc(Cl)c2cc1OC, CCC(CC)c1ccc(C=O)c2nc(Oc3c(C)cc(Cl)cc3Cl)n(C)c12 is higher in melting point: 118 to 120 °C for the first, 148 to 149 °C for the second.

First: CCOc1n[nH]c(=O)n1CC
Second: CCOC(=O)c1cc(N(C)C)ncn1
The melting point of the first is higher: 115 °C for the first, 40 to 42 °C for the second.

First: NC(=O)c1sccc1S
Second: CC(C)C(C)(C(N)=O)N1C(=O)C=CC1=O (stereo not drawn)
The melting point of the first is lower: 116 to 120 °C for the first, 138 to 140 °C for the second.

First: O=C1N=NC(=O)N1c1c(F)c(F)c(F)c(F)c1F
Second: NC(=O)c1ccnc(-c2cccc3cc(Cc4cccc(C(F)(F)F)c4)sc23)c1
The melting point of the first is lower: 88 to 91 °C for the first, 177 to 178 °C for the second.

First: CCOC(=O)c1ccccc1Nc1c([N+](=O)[O-])cc(C(F)(F)F)cc1[N+](=O)[O-]
Second: Cc1cccc2[nH]c(Nc3ccc(C(=O)O)cc3)nc12
The melting point of the first is lower: 152 to 154 °C for the first, 375 to 378 °C for the second.

Compared with COc1cc(N)c(Cl)cc1C(=O)N[C@H]1CCN(CCNC(=O)N(C)C)C[C@H]1OC (relative stereo), CC(=O)Nc1cc2cc(N)ccc2oc1=O is higher in melting point: 206 °C for the first, 250 to 252 °C for the second.

First: CC(Oc1ccc(Oc2ncc(Cl)cc2F)cc1)C(=O)NC=C(C#N)C#N (stereo not drawn)
Second: Nc1nc2ccc(SSc3ccc4nc(N)[nH]c4c3)cc2[nH]1
The melting point of the first is lower: 129 to 131 °C for the first, 245 °C for the second.

Compound COCCc1c[nH]c(=O)[nH]c1=O has a melting point of 232 to 234 °C.

Reference: a melting point compilation (Tetko et al.; mined from patent text by program, amines drawn as free bases though some values may be those of a salt)
